Assay results published in article PMC9287381, “Structure-based rational design of an enhanced fluorogen-activating protein for fluorogens based on GFP chromophore” (Communications Biology, 2022).
Substitutions are numbered along the chain they refer to.

How the values were obtained:
Test in all cases: spectrofluorometric titration of protein with chromophore
pFAST = biological target: T1, pFAST; assay type: binding, Halorhodospira halophila; conditions: 0.10 µM protein, 25 °C
T1 construct: gene pyp; multipoint directed-evolution variant of FAST (itself engineered PYP); E. coli BL21(DE3)
Excerpt: spectrofluorometric titration of protein with chromophore on pFAST

[1] = biological target: T2, FAST (Fluorescence-Activating and absorption-Shifting Tag) (Halorhodospira halophila, UniProt P16113, C69G/D97P/F96I/M100R/Q99S/R52Y/T101G/T95M/Y94W/Y98T); assay type: binding
T2 construct: gene pyp; engineered full-length PYP variant (~14 kDa); E. coli BL21(DE3)
T2 sequence (P16113 1-125 R52Y/C69G/Y94W/T95M/F96I/D97P/Y98T/Q99S/M100R/T101G): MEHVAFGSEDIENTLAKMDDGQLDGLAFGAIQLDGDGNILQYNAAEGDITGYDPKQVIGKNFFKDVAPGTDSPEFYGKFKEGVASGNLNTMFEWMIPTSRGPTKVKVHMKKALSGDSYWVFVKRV
Excerpt: (§1) spectrofluorometric titration of protein with chromophore on FAST (Fluorescence-Activating and absorption-Shifting Tag)

[2] = biological target: T3, FAST (Fluorescence-Activating and absorption-Shifting Tag) (Halorhodospira halophila, UniProt P16113, C69G/Y94W/T95M/F96I/D97P/Y98T/Q99S/M100R/T101G); assay type: binding; conditions: 0.10 µM protein, 25 °C
T3 construct: gene pyp; engineered full-length PYP variant (~14 kDa); E. coli BL21(DE3)
T3 sequence (P16113 1-125 C69G/Y94W/T95M/F96I/D97P/Y98T/Q99S/M100R/T101G): T2 sequence (P16113 1-125 R52Y/C69G/Y94W/T95M/F96I/D97P/Y98T/Q99S/M100R/T101G) with Y52R
Excerpt: as §1

[3] = biological target: T4, FAST (Fluorescence-Activating and absorption-Shifting Tag) (Halorhodospira halophila, UniProt P16113, R52L/C69G/Y94W/T95M/F96I/D97P/Y98T/Q99S/M100R/T101G); assay type: binding; conditions: 0.10 µM protein, 25 °C
T4 construct: gene pyp; engineered full-length PYP variant (~14 kDa); E. coli BL21(DE3)
T4 sequence (P16113 1-125 R52L/C69G/Y94W/T95M/F96I/D97P/Y98T/Q99S/M100R/T101G): T2 sequence (P16113 1-125 R52Y/C69G/Y94W/T95M/F96I/D97P/Y98T/Q99S/M100R/T101G) with Y52L
Excerpt: as §1

[4] = biological target: T5, FAST (Fluorescence-Activating and absorption-Shifting Tag) (Halorhodospira halophila, UniProt P16113, R52Y/C69G/Y94W/T95M/F96I/D97P/Y98T/Q99S/M100R/T101G); assay type: binding; conditions: 0.10 µM protein, 25 °C
T5 construct: gene pyp; engineered full-length PYP variant (~14 kDa); E. coli BL21(DE3)
T5 sequence (P16113 1-125 R52Y/C69G/Y94W/T95M/F96I/D97P/Y98T/Q99S/M100R/T101G): T2 sequence (P16113 1-125 R52Y/C69G/Y94W/T95M/F96I/D97P/Y98T/Q99S/M100R/T101G)
Excerpt: as §1

[5] = biological target: T6, FAST (Fluorescence-Activating and absorption-Shifting Tag) (Halorhodospira halophila, UniProt P16113, R52E/C69G/Y94W/T95M/F96I/D97P/Y98T/Q99S/M100R/T101G); assay type: binding; conditions: 0.10 µM protein, 25 °C
T6 construct: gene pyp; engineered full-length PYP variant (~14 kDa); E. coli BL21(DE3)
T6 sequence (P16113 1-125 R52E/C69G/Y94W/T95M/F96I/D97P/Y98T/Q99S/M100R/T101G): T2 sequence (P16113 1-125 R52Y/C69G/Y94W/T95M/F96I/D97P/Y98T/Q99S/M100R/T101G) with Y52E
Excerpt: (§2) spectrofluorometric titration of protein with chromophore on FAST (Fluorescence-Activating and absorption-Shifting Tag) | studied their properties in complex with N871b fluorogen

[6] = biological target: T7, FAST (Fluorescence-Activating and absorption-Shifting Tag) (Halorhodospira halophila, UniProt P16113, R52E/D65R/C69G/Y94W/T95M/F96I/D97P/Y98T/Q99S/M100R/T101G); assay type: binding; conditions: 0.10 µM protein, 25 °C
T7 construct: gene pyp; engineered full-length PYP variant (~14 kDa); E. coli BL21(DE3)
T7 sequence (P16113 1-125 R52E/D65R/C69G/Y94W/T95M/F96I/D97P/Y98T/Q99S/M100R/T101G): T2 sequence (P16113 1-125 R52Y/C69G/Y94W/T95M/F96I/D97P/Y98T/Q99S/M100R/T101G) with Y52E, D65R
Excerpt: as §2

[7] = biological target: T8, FAST (Fluorescence-Activating and absorption-Shifting Tag) (Halorhodospira halophila, UniProt P16113, C69G/Y94W/T95M/F96I/D97P/Y98T/Q99R/M100R/T101G); assay type: binding; conditions: 0.10 µM protein, 25 °C
T8 construct: gene pyp; engineered full-length PYP variant (~14 kDa); E. coli BL21(DE3)
T8 sequence (P16113 1-125 C69G/Y94W/T95M/F96I/D97P/Y98T/Q99R/M100R/T101G): T2 sequence (P16113 1-125 R52Y/C69G/Y94W/T95M/F96I/D97P/Y98T/Q99S/M100R/T101G) with Y52R, S99R

[8] = biological target: T9, FAST (Fluorescence-Activating and absorption-Shifting Tag) (Halorhodospira halophila, UniProt P16113, P68K/C69G/Y94W/T95M/F96I/D97P/Y98T/Q99S/M100R/T101G); assay type: binding; conditions: 0.10 µM protein, 25 °C
T9 construct: gene pyp; engineered full-length PYP variant (~14 kDa); E. coli BL21(DE3)
T9 sequence (P16113 1-125 P68K/C69G/Y94W/T95M/F96I/D97P/Y98T/Q99S/M100R/T101G): T2 sequence (P16113 1-125 R52Y/C69G/Y94W/T95M/F96I/D97P/Y98T/Q99S/M100R/T101G) with Y52R, P68K
Excerpt: (§3) spectrofluorometric titration of protein with chromophore on FAST (Fluorescence-Activating and absorption-Shifting Tag) | all the S99 mutants, P73S, P68K, D65K

[9] = biological target: T10, FAST (Fluorescence-Activating and absorption-Shifting Tag) (Halorhodospira halophila, UniProt P16113, D65K/C69G/Y94W/T95M/F96I/D97P/Y98T/Q99S/M100R/T101G); assay type: binding; conditions: 0.10 µM protein, 25 °C
T10 construct: gene pyp; engineered full-length PYP variant (~14 kDa); E. coli BL21(DE3)
T10 sequence (P16113 1-125 D65K/C69G/Y94W/T95M/F96I/D97P/Y98T/Q99S/M100R/T101G): T2 sequence (P16113 1-125 R52Y/C69G/Y94W/T95M/F96I/D97P/Y98T/Q99S/M100R/T101G) with Y52R, D65K
Excerpt: as §3

[10] = biological target: T11, FAST (Fluorescence-Activating and absorption-Shifting Tag) (Halorhodospira halophila, UniProt P16113, C69G/P73S/Y94W/T95M/F96I/D97P/Y98T/Q99S/M100R/T101G); assay type: binding; conditions: 0.10 µM protein, 25 °C
T11 construct: gene pyp; engineered full-length PYP variant (~14 kDa); E. coli BL21(DE3)
T11 sequence (P16113 1-125 C69G/P73S/Y94W/T95M/F96I/D97P/Y98T/Q99S/M100R/T101G): T2 sequence (P16113 1-125 R52Y/C69G/Y94W/T95M/F96I/D97P/Y98T/Q99S/M100R/T101G) with Y52R, P73S
Excerpt: as §3

[11] = biological target: T12, FAST (Fluorescence-Activating and absorption-Shifting Tag) (Halorhodospira halophila, UniProt P16113, C69G/Y94W/T95M/F96I/D97P/Y98T/Q99K/M100R/T101G); assay type: binding; conditions: 0.10 µM protein, 25 °C
T12 construct: gene pyp; engineered full-length PYP variant (~14 kDa); E. coli BL21(DE3)
T12 sequence (P16113 1-125 C69G/Y94W/T95M/F96I/D97P/Y98T/Q99K/M100R/T101G): T2 sequence (P16113 1-125 R52Y/C69G/Y94W/T95M/F96I/D97P/Y98T/Q99S/M100R/T101G) with Y52R, S99K

[12] = biological target: T13, FAST (Fluorescence-Activating and absorption-Shifting Tag) (Halorhodospira halophila, UniProt P16113, C69G/Y94W/T95M/F96I/D97P/Y98T/Q99E/M100R/T101G); assay type: binding; conditions: 0.10 µM protein, 25 °C
T13 construct: gene pyp; engineered full-length PYP variant (~14 kDa); E. coli BL21(DE3)
T13 sequence (P16113 1-125 C69G/Y94W/T95M/F96I/D97P/Y98T/Q99E/M100R/T101G): T2 sequence (P16113 1-125 R52Y/C69G/Y94W/T95M/F96I/D97P/Y98T/Q99S/M100R/T101G) with Y52R, S99E

Row | SMILES | Kd (pFAST) [µM] | Kd [1] [µM] | Kd [2] [µM] | Kd [3] [µM] | Kd [4] [µM] | Kd [5] [µM] | Kd [6] [µM] | Kd [7] [µM] | Kd [8] [µM] | Kd [9] [µM] | Kd [10] [µM] | Kd [11] [µM] | Kd [12] [µM]
1 | COc1cc(O)ccc1/C=C1N=C(/C=C/c2cccs2)N(C)C\1=O [MCL.1b] | 0.023 ± 0.003 | 0.27 ± 0.06 | 0.2 ± 0.04 | 0.44 ± 0.2 | – | – | – | – | – | – | – | – | –
2 | COc1cc(O)ccc1/C=C1N=C(/C=C/c2ccccn2)N(C)C\1=O [MCL.1f] | 0.029 ± 0.005 | 0.31 ± 0.05 | 0.27 ± 0.04 | 0.39 ± 0.1 | – | – | – | – | – | – | – | – | –
3 | COc1cc(O)ccc1/C=C1\N=C2C=C(/C=C/c3ccncc3)C=CN2C1=O [MCL.3a] | 0.025 ± 0.002 | – | 0.08 ± 0.01 | 0.06 ± 0.01 | 0.11 ± 0.02 | – | – | – | – | – | – | – | –
4 | COc1cc(O)ccc1/C=C1N=C(/C=C/c2ccncc2)N(C)C\1=O [N871b] | 0.04 ± 0.002 | 0.24 ± 0.02 | 0.33 ± 0.01 | 0.27 ± 0.01 | – | 1.3 ± 0.07 | 1.36 ± 0.22 | 0.24 ± 0.01 | 0.22 ± 0.01 | 0.25 ± 0.01 | 0.17 ± 0.01 | 0.27 ± 0.01 | 0.21 ± 0.01
